These results are taken from patent US12534439B2, “Xanthohumol derivatives and methods for making and using” (Oregon State University, priority 2021, dated 2026).

Data set [1] concerns C2Cl2 cells. Particulars: cited from earlier work.
The conditions of data set [2]: general statement on XN; cited from earlier work.
A further data set concerns HepG2 cells. Put plainly: MTT cell viability assay in HepG2 cells. The class given is cell-based, human. Particulars: 24 hours. On the procedure: (§1) To assess the toxicity of 4-(5-(4-hydroxyphenyl)-1-methyl-1h-pyrazol-3-yl)-5-methoxy-2-(3-methylbut-2-en-1-yl)benzene-1,3-diol (XP), in vitro cell viability assays were performed on several cell lines. HepG2, 3T3L1 and C2Cl2 cells were exposed to XP and cell viability was assessed using an MTT assay. At concentrations lower than 50 μM, XP had no effect on the viability of the human liver cancer cell lines HepG2 and murine myoblast cell lines C2Cl2 with respect to the control treatment (FIGS. 11A-11B). […] This establishes that XP is safe to use in vivo at dosages similar to xanthohumol.
(§2) Cell Viability Assays. Cells were seeded in 96-well plates 24 hours prior to adding the compound. HepG2 cells were seeded at a density of 5×10^4 cells/mL and C2Cl2 at 1×10^4 cells/mL in order to reach 80% confluency at the beginning of the experiment. After 24 hours, the culture medium was replaced with fresh medium containing various concentrations ranging between 0 and 200 μM of XP. The cells were incubated in the presence of the compound for 24 hours, at which time, the MTT viability assay was carried as previously described. MTT was dissolved at 0.5 mg/mL in serum-free Dulbecco's modified Eagle's medium, filter-sterilized and 100 μL was added to the cells. The cells were incubated for 3 hours and then acidified with 100% isopropanol for 15 minutes before absorbance reading at 570 nm on a BioTek Synergy HT plate reader.

The test system of another data set is HFD-fed C57BL/6J mice. The experiment in a line: Follow-up study: XP given after 4 weeks of HFD pre-conditioning (Example 8). The class given is in vivo. Particulars: for Decrease in weight gain, average: between weeks 9 and 12, versus HFD without compound. From the text: This example concerns the effects of administering 4-(5-(4-hydroxyphenyl)-1-methyl-1H-pyrazol-3-yl)-5-methoxy-2-(3-methylbut-2-en-1-yl)benzene-1,3-diol to mice after a pre-conditioning phase of 4 weeks during which animals were fed a high-fat diet (HFD) or a low-fat diet (LFD). Forty 9-week old wild-type (WT) male C57BL/6J mice were obtained from Jackson Laboratory (Bar Harbor, ME, USA). The mice were housed in ventilated cages under a 12-12-hr light-dark cycle. Of the 40 mice, 32 were fed a HFD (Dyets Inc., Bethlehem, PA, USA) containing 60%, 20% and 20% total calories from fat, carbohydrate and protein, respectively. The remaining 8 mice were fed a LFD (Dyets Inc., Bethlehem, PA, USA), containing 11%, 70% and 19% total calories from fat, carbohydrate and protein, respectively. XP was first dissolved in a mixture of oleic acid:propylene glycol:Tween 80 (0.9:1:1 by weight) before the solution was mixed into the HFD at a concentration of 0.066% to reach a dose of 60 mg/kg body weight/day. After 4 weeks of HFD feeding, the XP-containing HFD was given to 16 of the 32 HFD-pretreated mice for 8 weeks. Sixteen mice in HFD-pretreatment group received a HFD control diet that contained an identical amount of the mixture of oleic acid:propylene glycol:Tween 80 (0.9:1:1 by weight). The LFD-fed mice were continued on the LFD diet. Food intake and body weights were recorded weekly. The mice were euthanized at week 12.

Data set [3] relates to C2Cl2 cells. The experiment in a line: MTT cell viability assay in C2Cl2 cells. The class given is cell-based, murine. Particulars: 24 hours. How it is done: as §1
as §2, with “MTT was dissolved at 0.5 mg/mL in serum-free Dulbecco's modified Eagle's medium, filter-sterilized and 100 μL was added to the cells.” left out

In data set [4] the test system is LPS-activated RAW 264.7 cells. Put plainly: Nitric oxide (NO) assay, Griess reagent. The class given is cell-based. To be noted: LPS 1 μg/mL, 24 hours. On the procedure: Nitric Oxide (NO) Assay. NO secreted by LPS-activated RAW 264.7 cells into the culture medium was determined as nitrite by the Griess reagent. RAW 264.7 1 cells obtained from the American Type Culture Collection (Manassas, VA, USA) were cultured in DMEM supplemented with 2 mM glutamine, antibiotics (100 U/mL penicillin and 100 μg/mL streptomycin), and 10% heat-inactivated fetal bovine serum. The cells were initially grown in 75 cm^2 culture flasks at 37° C. in a humidified incubator with 5% CO2. After reaching 80% confluency, the cells were split by seeding them on 96-well plates (0.2 mL/well) at a density of 1.5×10^5 cells/mL. After a 24-hour incubation at 37° C., the cells were treated with LPS (1 μg/mL) with or without test compounds in various concentrations. Vehicle control cells were treated with dimethyl sulfoxide alone at a final concentration of 0.1%. Culture media from control and treated cells were collected after 24 hours of incubation and were frozen at −80° C. before analysis. For the determination of NO (as […]), […], aliquots of the thawed culture media were mixed with an equal volume of Griess reagent on a 96-well plate. […] The samples were incubated for 10 minutes at room temperature and then the absorbance was read at 550 nm using a SpectraMax 190 (Molecular Devices, Sunnyvale, CA) plate reader.
Background: Nitrite, measured by Griess reagent, commonly stands in for NO production.

A further data set relates to 3T3L1 cells. The experiment in a line: MTT cell viability assay in differentiated 3T3L1 adipocytes. The class given is cell-based, murine. How it is done:
as §1
as §2, with “MTT was dissolved at 0.5 mg/mL in serum-free Dulbecco's modified Eagle's medium, filter-sterilized and 100 μL was added to the cells.” left out

The mark [5] stands for this setting: listed as 4-(5-(4-hydroxyphenyl)-1-methyl-1H-pyrazol-3-yl)-5-methoxy-2-(3-methylbut-2-en-1).
The mark [6] stands for this setting: listed as 4-(5-(4-hydroxyphenyl)-1-methyl-1h-pyrazol-3-yl)-5-methoxy-2-(3-methylbut-2-en-1).

Each structure is given as a SMILES string. A value given as a limit tells only on which side of the number the result lay.

For `COc1cc(O)c(CC=C(C)C)c(O)c1C(=O)/C=C/c1ccc(O)cc1` [XN, xanthohumol], the Cytotoxic concentration entry in the data set with C2Cl2 cells [1] is “above 25 μM”. In addition, the “Metabolism” value in data set [2] is “subject to extensive phase 1 and phase 2 metabolism”.
In the case of `COc1cc(O)c(CC=C(C)C)c(O)c1-c1cc(-c2ccc(O)cc2)n(C)n1` [XP, 4-(5-(4-hydroxyphenyl)-1-methyl-1H-pyrazol-3-yl)-5-methoxy-2-(3-methylbut-2-en-1-yl)benzene-1,3-diol], the “Concentration without effect on cell viability” value in the data set with HepG2 cells is “lower than 50 μM”; in the data set on HepG2 cells (setting [5]) it was “up to 25 μM”; with HepG2 cells (setting [6]), 1 to 50 µM; in the data set on C2Cl2 cells [3] it was “lower than 50 μM”; in the data set on C2Cl2 cells [3] (setting [5]), “up to 25 μM”; in the data set with 3T3L1 cells (3T3L1, MTT), “up to 5 μM”. In addition, the “Weight gain versus control HFD-fed mice” value in the data set on HFD-fed C57BL/6J mice (60 mg/kg body weight/day in HFD for 8 weeks after 4 weeks HFD) was “gained significantly less weight”. The “Decrease in weight gain, average” value was “about 5%” in the data set on HFD-fed C57BL/6J mice and 5% with HFD-fed C57BL/6J mice (setting [6]). For the same compound, the “Food intake versus control” value in the data set on HFD-fed C57BL/6J mice (mouse, in vivo) is “no difference”. Besides, the “Concentration from which anti-inflammatory activity (decreased NO production) was displayed” value in data set [4] is at least 10 µM. The “Concentration at which dose-dependent reduction in cell viability occurred” value with 3T3L1 cells (differentiated 3T3L1 adipocytes, MTT) amounted to 10 µM.
